Data set [1] concerns Plasmodium falciparum. Nature of the data set: Antiplasmodial activity against Plasmodium falciparum. It counts as functional, organism-based.
In data set [2] the test system is Plasmodium falciparum. The data set is described as follows: Antiplasmodial activity against D-sorbitol synchronized ring stage chloroquine/mefloquine/pyrimethamine-resistant Plasmodium falciparum Dd2 after 72 hrs. It counts as functional, organism-based. As to conditions: Dd2, 72 h.
The test system of data set [3] is Erythrocyte. Nature of the data set: Hemolytic activity in human RBC assessed as release of hemoglobin at 0.78 nM to 26 uM incubated for 72 hrs. It counts as ADME, cell-based. To be noted: 0.00078 µM.
For data set [4], the system named is Plasmodium falciparum. Nature of the data set: Antiplasmodial activity against D-sorbitol synchronized ring stage Plasmodium falciparum 3D7 after 72 hrs. To be noted: 3D7, 72 h. It counts as functional, organism-based.

SMILES strings stand for the structures. pIC50: −log10 of the molar value. Where a SMILES comes first, the peptide text is derived from it.

What is called pIC50 is −log10 of the IC50, conventionally taken in molar units.

`C[C@@H](O)[C@@H]1NC(=O)CNC(=O)[C@H](Cc2ccccc2)NC(=O)[C@H](Cc2ccccc2)NC(=O)CNC(=O)[C@H](Cc2ccccc2)NC(=O)[C@H](Cc2ccccc2)NC1=O` (cyclo(FFGFFGT)) had a pIC50 in data set [1] of 5.66.

For the compound `CC[C@H](C)[C@@H]1NC(=O)[C@H]([C@@H](C)CC)NC(=O)[C@H]([C@@H](C)CC)NC(=O)[C@@H]2CCCN2C(=O)[C@H]([C@@H](C)O)NC(=O)[C@@H]2CCCN2C(=O)[C@@H]2CCCN2C(=O)[C@H](CC(C)C)NC1=O` (cyclo(IIILPPTP)), the negative logarithm of the IC50 (pIC50) was 5.74 in data set [2] and 5.44 in data set [4]. Moreover, the Activity entry in data set [3] was “Non-Toxic”.

The values above are taken from ChEMBL document CHEMBL4622876, “Total Synthesis and Antimalarial Activity of Dominicin, a Cyclic Octapeptide from a Marine Sponge” (J Nat Prod, 2020).
